This passage reports mutagenic call results from PubChem BioAssay AID1259407 (Chemical Carcinogenesis Research Information System (CCRIS), 2018).

Activity calls are given as the source filed them. No rule for the calls is given here.

This series deals with CCRIS mutagenicity, Ames/micronucleus/aberration tests. As to the kind of experiment: CCRIS mutagenicity studies.
Setting [1] is: Test System: AMES SALMONELLA TYPHIMURIUM, Strain/Indicator: TA97, Metabolic Activation: HAMSTER, LIVER, S-9, AROCLOR 1254 (10%), Method: PREINCUBATION
The mark [2] stands for this setting: Test System: AMES SALMONELLA TYPHIMURIUM, Strain/Indicator: TA97, Metabolic Activation: HAMSTER, LIVER, S-9, AROCLOR 1254 (30%), Method: PREINCUBATION
The mark [3] stands for this setting: Test System: AMES SALMONELLA TYPHIMURIUM, Strain/Indicator: TA97, Metabolic Activation: NONE, Method: PREINCUBATION
The mark [4] stands for this setting: Test System: AMES SALMONELLA TYPHIMURIUM, Strain/Indicator: TA97, Metabolic Activation: RAT, LIVER, S-9, AROCLOR 1254 (10%), Method: PREINCUBATION
Setting [5] is: Test System: AMES SALMONELLA TYPHIMURIUM, Strain/Indicator: TA97, Metabolic Activation: RAT, LIVER, S-9, AROCLOR 1254 (30%), Method: PREINCUBATION
Where [6] appears, read: Test System: AMES SALMONELLA TYPHIMURIUM, Strain/Indicator: TA98, Metabolic Activation: HAMSTER, LIVER, S-9, AROCLOR 1254 (10%), Method: PREINCUBATION
Setting [7] is: Test System: AMES SALMONELLA TYPHIMURIUM, Strain/Indicator: TA98, Metabolic Activation: HAMSTER, LIVER, S-9, AROCLOR 1254 (30%), Method: PREINCUBATION
Setting [8] is: Test System: AMES SALMONELLA TYPHIMURIUM, Strain/Indicator: TA98, Metabolic Activation: NONE, Method: PREINCUBATION
Where [9] appears, read: Test System: AMES SALMONELLA TYPHIMURIUM, Strain/Indicator: TA98, Metabolic Activation: RAT, LIVER, S-9, AROCLOR 1254 (10%), Method: PREINCUBATION
Setting [10] is: Test System: AMES SALMONELLA TYPHIMURIUM, Strain/Indicator: TA98, Metabolic Activation: RAT, LIVER, S-9, AROCLOR 1254 (30%), Method: PREINCUBATION
Setting [11] is: Test System: AMES SALMONELLA TYPHIMURIUM, Strain/Indicator: TA100, Metabolic Activation: HAMSTER, LIVER, S-9, AROCLOR 1254 (10%), Method: PREINCUBATION
[12] abbreviates: Test System: AMES SALMONELLA TYPHIMURIUM, Strain/Indicator: TA100, Metabolic Activation: HAMSTER, LIVER, S-9, AROCLOR 1254 (30%), Method: PREINCUBATION
Where [13] appears, read: Test System: AMES SALMONELLA TYPHIMURIUM, Strain/Indicator: TA100, Metabolic Activation: NONE, Method: PREINCUBATION
Setting [14] is: Test System: AMES SALMONELLA TYPHIMURIUM, Strain/Indicator: TA100, Metabolic Activation: RAT, LIVER, S-9, AROCLOR 1254 (10%), Method: PREINCUBATION
[15] abbreviates: Test System: AMES SALMONELLA TYPHIMURIUM, Strain/Indicator: TA100, Metabolic Activation: RAT, LIVER, S-9, AROCLOR 1254 (30%), Method: PREINCUBATION
[16] abbreviates: Test System: AMES SALMONELLA TYPHIMURIUM, Strain/Indicator: TA1535, Metabolic Activation: HAMSTER, LIVER, S-9, AROCLOR 1254 (10%), Method: PREINCUBATION
Where [17] appears, read: Test System: AMES SALMONELLA TYPHIMURIUM, Strain/Indicator: TA1535, Metabolic Activation: HAMSTER, LIVER, S-9, AROCLOR 1254 (30%), Method: PREINCUBATION
[18] abbreviates: Test System: AMES SALMONELLA TYPHIMURIUM, Strain/Indicator: TA1535, Metabolic Activation: NONE, Method: PREINCUBATION
[19] abbreviates: Test System: AMES SALMONELLA TYPHIMURIUM, Strain/Indicator: TA1535, Metabolic Activation: RAT, LIVER, S-9, AROCLOR 1254 (10%), Method: PREINCUBATION
[20] abbreviates: Test System: AMES SALMONELLA TYPHIMURIUM, Strain/Indicator: TA1535, Metabolic Activation: RAT, LIVER, S-9, AROCLOR 1254 (30%), Method: PREINCUBATION
Setting [21] is: Test System: AMES SALMONELLA TYPHIMURIUM, Strain/Indicator: TA100, Metabolic Activation: RAT, LIVER, S-9, AROCLOR 1254, Method: PREINCUBATION

As to `Nc1c(Cl)cc(Cl)cc1Cl`, the mutagenic call runs as follows: (End Point: IN VITRO CHROMOSOMAL ABERRATIONS, Test System: CHL CELLS, Metabolic Activation: NONE) “inactive; negative”; (End Point: IN VITRO CHROMOSOMAL ABERRATIONS, Test System: CHL CELLS, Metabolic Activation: RAT, LIVER, S-9, SODIUM PHENOBARBITAL AND 5,6-BENZOFLAVONE) “inactive; negative”; under setting [1], “inactive; negative”; under setting [2], “inactive; negative”; under setting [3], “inactive; negative”; under setting [4], “inactive; negative”. In addition, the mutagenic call by setting is: under setting [5], “inactive; negative”; under setting [6], “inactive; negative”; under setting [7], “inactive; negative”; under setting [8], “inactive; negative”; under setting [9], “inactive; negative”; under setting [10], “inactive; negative”. The mutagenic call by setting is: (Test System: AMES SALMONELLA TYPHIMURIUM, Strain/Indicator: TA100, Metabolic Activation: HAMSTER, LIVER, S-9, AROCLOR 1254 (5%), Method: PREINCUBATION) “inactive; negative”; under setting [11], “inactive; negative”; under setting [12], “inactive; negative”; under setting [13], “inactive; negative”; (Test System: AMES SALMONELLA TYPHIMURIUM, Strain/Indicator: TA100, Metabolic Activation: RAT, LIVER, S-9, AROCLOR 1254 (5%), Method: PREINCUBATION) “inactive; negative”; under setting [14], “inactive; negative”. The mutagenic call by setting is: under setting [15], “inactive; negative”; under setting [16], “inactive; negative”; under setting [17], “inactive; negative”; under setting [18], “inactive; negative”; under setting [19], “inactive; negative”; under setting [20], “inactive; negative”. Also, under “Test System: UDS RODENT HEPATOCYTES, Strain/Indicator: THY INCORP (NON-S-PHASE), Metabolic Activation: NONE, Method: AUTORADIOGRAPHY”, the mutagenic call was “inactive; negative”.
As for `O=C(O)/C=C/c1ccc(Cl)cc1`, the mutagenic call runs as follows: under setting [13], “inactive; negative”; under setting [21], “inactive; negative”.
Regarding `CC1CCCC1`, the mutagenic call reads like this: under setting [1], “inactive; negative”; under setting [2], “inactive; negative”; under setting [3], “inactive; negative”; under setting [4], “inactive; negative”; under setting [5], “inactive; negative”; under setting [6], “inactive; negative”. Besides, the mutagenic call runs as follows: under setting [7], “inactive; negative”; under setting [8], “inactive; negative”; under setting [9], “inactive; negative”; under setting [10], “inactive; negative”; under setting [11], “inactive; negative”; under setting [12], “inactive; negative”. The mutagenic call is “inactive; negative” under setting [13]; “inactive; negative” under setting [14]; “inactive; negative” under setting [15]; “inactive; negative” under setting [16]; “inactive; negative” under setting [17]; “inactive; negative” under setting [18]. In addition, the mutagenic call is “inactive; negative” under setting [19] and “inactive; negative” under setting [20].
For `COc1cccc2c1C1(C)OOC1(C)O2` (stereo unspecified), the mutagenic call under setting [13] is “active; positive”.
Regarding `COCCOCCOC`, the mutagenic call by setting is: under setting [6], “inactive; negative”; under setting [8], “inactive; negative”; under setting [9], “inactive; negative”; under setting [11], “inactive; negative”; under setting [13], “inactive; negative”; under setting [14], “inactive; negative”. In addition, the mutagenic call was “inactive; negative” under setting [16]; “inactive; negative” under setting [18]; “inactive; negative” under setting [19]; “inactive; negative” (Test System: AMES SALMONELLA TYPHIMURIUM, Strain/Indicator: TA1537, Metabolic Activation: HAMSTER, LIVER, S-9, AROCLOR 1254 (10%), Method: PREINCUBATION); “inactive; negative” (Test System: AMES SALMONELLA TYPHIMURIUM, Strain/Indicator: TA1537, Metabolic Activation: NONE, Method: PREINCUBATION); “inactive; negative” (Test System: AMES SALMONELLA TYPHIMURIUM, Strain/Indicator: TA1537, Metabolic Activation: RAT, LIVER, S-9, AROCLOR 1254 (10%), Method: PREINCUBATION).
On to `O[C@@H]1[C@H]2O[C@H]2c2c(ccc3c4ccccc4c4ccccc4c23)[C@H]1O`, for which the mutagenic call is “active; positive” under setting [3]; “active; positive” under setting [8]; “active; positive” under setting [13]; “active; positive” (Test System: AMES SALMONELLA TYPHIMURIUM, Strain/Indicator: TA104, Metabolic Activation: NONE, Method: PREINCUBATION); “active; positive” (Test System: CHINESE HAMSTER V-79, Strain/Indicator: V-79/6-THIOGUANINE, Metabolic Activation: NONE).
Regarding `CCOC(=O)[C@@H](N)CS`, where the note is “Test System: AMES SALMONELLA TYPHIMURIUM, Strain/Indicator: TA102, Metabolic Activation: NONE, Method: STANDARD PLATE”, the mutagenic call is “active; positive”.
In the case of `Nc1nc2ccc(Cl)cc2[nH]1`, the mutagenic call is, setting by setting: (Test System: AMES SALMONELLA TYPHIMURIUM, Strain/Indicator: TA98, Metabolic Activation: RAT, LIVER, S-9, AROCLOR 1254, Method: PREINCUBATION) “inactive; negative”; under setting [21], “inactive; negative”.
With `OCCS`, the mutagenic call under setting [13] was “inactive; negative”.
For `Cc1c2ccccc2c(CBr)c2ccccc12`, the mutagenic call by setting is: (Test System: AMES SALMONELLA TYPHIMURIUM, Strain/Indicator: TA98, Metabolic Activation: NONE, Method: STANDARD PLATE) “active; positive”; (Test System: AMES SALMONELLA TYPHIMURIUM, Strain/Indicator: TA100, Metabolic Activation: NONE, Method: STANDARD PLATE) “inactive; negative”.
